Laboratory results published in ChEMBL document CHEMBL3621146, “Design of Potent and Orally Active GPR119 Agonists for the Treatment of Type II Diabetes” (ACS Med Chem Lett, 2015).
≈ marks a conversion by molar mass, not a printed value.

Columns and labels:
[1] = biological target: T1, Glucose-dependent insulinotropic receptor (Mus musculus, UniProt Q7TQP3); experiment: Agonist activity at mouse GPR119 by cAMP assay; type: functional
T1 sequence (Q7TQP3 whole entry): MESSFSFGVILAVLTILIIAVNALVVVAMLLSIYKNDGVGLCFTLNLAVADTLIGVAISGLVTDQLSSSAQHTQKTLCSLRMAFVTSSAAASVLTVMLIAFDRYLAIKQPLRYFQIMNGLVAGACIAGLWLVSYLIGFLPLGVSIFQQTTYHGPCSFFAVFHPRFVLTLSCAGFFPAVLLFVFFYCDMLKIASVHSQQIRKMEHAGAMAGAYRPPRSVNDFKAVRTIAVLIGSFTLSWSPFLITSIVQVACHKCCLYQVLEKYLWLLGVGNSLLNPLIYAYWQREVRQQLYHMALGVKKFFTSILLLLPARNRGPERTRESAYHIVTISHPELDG

[2] = (§1) Half life in Wistar Han rat at 0.5 mg/kg, iv LC-MS/MS method; type: ADME, organism-based; details: Wistar Han, in vivo
[3] = biological target: T2, Glucose-dependent insulinotropic receptor (Homo sapiens, UniProt Q8TDV5); experiment: Agonist activity at human GPR119 expressed in CHO cells by cAMP assay; type: functional, cell-based
T2 sequence (Q8TDV5 whole entry): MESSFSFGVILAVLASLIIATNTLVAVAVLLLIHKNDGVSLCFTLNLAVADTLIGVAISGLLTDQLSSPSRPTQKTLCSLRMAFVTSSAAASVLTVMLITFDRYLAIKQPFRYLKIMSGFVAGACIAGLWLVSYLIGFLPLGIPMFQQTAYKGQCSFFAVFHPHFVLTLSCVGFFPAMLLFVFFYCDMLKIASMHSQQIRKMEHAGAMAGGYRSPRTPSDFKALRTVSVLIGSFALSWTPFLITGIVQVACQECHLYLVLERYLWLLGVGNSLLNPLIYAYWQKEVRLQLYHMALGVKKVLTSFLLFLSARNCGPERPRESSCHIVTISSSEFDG

[4] = biological target: T3, Glucose-dependent insulinotropic receptor (Mus musculus) (UniProt Q7TQP3); experiment: Agonist activity at mouse GPR119 by cAMP assay relative to control; type: functional; set-up: concentration or dose not given beside the values
T3 sequence (whole entry): T1 sequence (Q7TQP3 whole entry)

[5] = Lipophilicity, logD of the compound at pH 7 by HPLC method; type: physicochemical; details: buffer
[6] = biological target: T4, Glucose-dependent insulinotropic receptor (Homo sapiens) (UniProt Q8TDV5); experiment: Agonist activity at human GPR119 by cAMP assay relative to control; type: functional; set-up: concentration or dose not given beside the values
T4 sequence (whole entry): T2 sequence (Q8TDV5 whole entry)

[7] = Kinetic solubility in FaSSIF at pH 6.5; type: physicochemical; details: for solubility kinetic: FaSSIF, read-out: Kinetic_solubility
[8] = tested on: Rattus norvegicus; experiment: Unbound volume of distribution in Wistar Han rat at 0.5 mg/kg, iv LC-MS/MS method; type: ADME, organism-based; details: in vivo
[9] = Fraction unbound in rat plasma; type: ADME, cell-free
[10] = tested on: Rattus norvegicus; experiment: as §1; type: ADME, organism-based; details: in vivo
[11] = Intrinsic clearance in rat liver microsomes; type: ADME; details: read-out: CLH
[12] = tested on: Rattus norvegicus; experiment: Volume of distribution in Wistar Han rat at 0.5 mg/kg, iv LC-MS/MS method; type: ADME, organism-based; details: in vivo

Structure (SMILES)	EC50 [1] [nM]	half-life [2] [h]	EC50 [3] [nM]	Activity [4] [%]	logD [5]	Activity [6] [%]	solubility kinetic [7] [µM]	Vdu [8] [L/kg]	fraction unbound [9]	t1/2 [10] [h]	CLint scaled [11] [mL/min/kg]	Vd [12] [L/kg]	Kinetic_solubility ([7]; simulated gi fluid) [µM]
COc1cnc(N2CCC([C@H]3C[C@H]3COCc3ccc(S(C)(=O)=O)cc3F)CC2)nc1	1.4	0.6	4.5	85	4	79	151 (≈ 67.9 µg/mL)	–	–	–	–	–	–
CCS(=O)(=O)c1ccc(OCC[C@@H]2C[C@@H]2C2CCN(c3nc(C(C)C)no3)CC2)c(F)c1	–	–	1.7	–	4.2	69	61 (≈ 28.4 µg/mL)	242	0.02	6.5	675	4.8	–
CC1(OC(=O)N2CCC([C@H]3C[C@H]3COCc3ccc(-n4cnnn4)cc3F)CC2)CC1	15	1	4.8	108	3.8	121	127 (≈ 54.5 µg/mL)	–	–	–	–	–	–
CC(C)c1noc(N2CCC([C@H]3C[C@H]3COCc3ccc(S(C)(=O)=O)cc3F)CC2)n1	9.9	2.2	4.2	76	3.8	87	144 (≈ 65 µg/mL)	–	–	–	–	–	–
COCc1cnc(N2CCC([C@H]3C[C@H]3COCc3ccc(S(C)(=O)=O)c(F)c3)CC2)nc1	5.2	1.2	3.3	87	3.5	94	155 (≈ 71.9 µg/mL)	–	–	–	–	–	–
CCc1cnc(N2CCC([C@H]3C[C@H]3COCc3ccc(S(C)(=O)=O)c(F)c3)CC2)nc1	5.5	1	2.5	115	4.3	98	140 (≈ 62.7 µg/mL)	–	–	–	–	–	–
COC(C)c1cnc(N2CCC([C@H]3C[C@H]3COCc3ccc(S(C)(=O)=O)cc3F)CC2)nc1 (stereo in doubt; 29) [listing 1 of 2 here]	–	–	–	109	–	87	–	–	–	–	–	–	–
CCS(=O)(=O)c1ccc(COC[C@@H]2C[C@@H]2C2CCN(c3nc(C(C)C)no3)CC2)c(F)c1	–	–	0.8	–	4	71	127 (≈ 59.1 µg/mL)	62	0.058	1.5	905	4.8	–
CCOc1cnc(N2CCC([C@H]3C[C@H]3COCc3ccc(S(C)(=O)=O)c(F)c3)CC2)nc1	2.3	0.8	1.7	96	4.2	75	101 (≈ 46.8 µg/mL)	–	–	–	–	–	–
COC(C)c1cnc(N2CCC([C@H]3C[C@H]3COCc3ccc(S(C)(=O)=O)cc3F)CC2)nc1 (stereo in doubt; 30) [listing 1 of 2 here]	–	–	–	70	–	95	–	–	–	–	–	–	–
COC(C)c1cnc(N2CCC([C@H]3C[C@H]3COCc3ccc(S(C)(=O)=O)cc3F)CC2)nc1 (stereo in doubt; 30) [listing 2 of 2 here]	3.3	–	4.6	–	3.9	–	137 (≈ 65.4 µg/mL)	–	–	1	–	–	–
COCc1cnc(N2CCC([C@H]3C[C@H]3COCc3ccc(-n4cnnn4)c(F)c3)CC2)nc1	3.8	3	1.1	75	3.7	84	133 (≈ 60.3 µg/mL)	–	–	–	–	–	–
O=S(=O)(CCO)c1ccc(COC[C@@H]2C[C@@H]2C2CCN(c3ncc(Cl)cn3)CC2)c(F)c1	1.7	0.9	2.3	121	4.8	68	83 (≈ 40.2 µg/mL)	–	–	–	–	–	–
CC(C)c1noc(N2CCC([C@H]3C[C@H]3COCc3ccc(-n4cnnn4)cc3F)CC2)n1	4.8	1.4	1.7	105	3.9	129	103 (≈ 45.5 µg/mL)	–	–	–	–	–	–
CS(=O)(=O)c1ccc(COC[C@@H]2C[C@@H]2C2CCN(c3ncc(F)cn3)CC2)cc1F	4.5	1.5	2.4	131	4.2	85	92 (≈ 40.3 µg/mL)	–	–	–	–	–	–
COCc1cnc(N2CCC([C@H]3C[C@H]3COCc3cc(F)c(S(C)(=O)=O)c(F)c3)CC2)nc1	5.8	0.5	4.5	67	3.6	80	115 (≈ 55.4 µg/mL)	–	–	–	–	–	–
CCc1cnc(N2CCC([C@H]3C[C@H]3COCc3ccc(S(C)(=O)=O)cn3)CC2)nc1	2.5	1.3	1.5	153	3.6	83	7 (≈ 3.01 µg/mL)	–	–	–	–	–	–
COCc1cnc(N2CCC([C@H]3C[C@H]3COCc3ccc(CC(=O)N4CCOCC4)cc3F)CC2)nc1	3.7	0.4	3.2	99	3.4	104	172 (≈ 88.2 µg/mL)	–	–	–	–	–	–
COC(C)c1cnc(N2CCC([C@H]3C[C@H]3COCc3ccc(S(C)(=O)=O)cc3F)CC2)nc1 (stereo in doubt; 29) [listing 2 of 2 here]	8.9	1.4	3.1	–	–	–	–	–	–	–	–	–	143
CCS(=O)(=O)c1ccc(COC[C@@H]2C[C@@H]2C2CCN(c3ncc(COC)cn3)CC2)c(F)c1	12.5	2.1	7.1	87	3.8	58	129 (≈ 61.6 µg/mL)	–	–	–	–	–	–
